Test results published in publication PMC5982655, “Interaction of the New Monofunctional Anticancer Agent Phenanthriplatin With Transporters for Organic Cations” (Frontiers in Chemistry, 2018).

Columns and labels:
mOCT1 = molecular target: T1, mOCT1 (Mus musculus, UniProt O08966); experiment: Inhibition of ASP+ uptake in HEK 293 cells expressing mOCT1; type: cell-based, murine; settings: HEK 293 mOCT1, 1 μM ASP+
T1 construct: expressed in transfected cells
T1 sequence (O08966 1-556): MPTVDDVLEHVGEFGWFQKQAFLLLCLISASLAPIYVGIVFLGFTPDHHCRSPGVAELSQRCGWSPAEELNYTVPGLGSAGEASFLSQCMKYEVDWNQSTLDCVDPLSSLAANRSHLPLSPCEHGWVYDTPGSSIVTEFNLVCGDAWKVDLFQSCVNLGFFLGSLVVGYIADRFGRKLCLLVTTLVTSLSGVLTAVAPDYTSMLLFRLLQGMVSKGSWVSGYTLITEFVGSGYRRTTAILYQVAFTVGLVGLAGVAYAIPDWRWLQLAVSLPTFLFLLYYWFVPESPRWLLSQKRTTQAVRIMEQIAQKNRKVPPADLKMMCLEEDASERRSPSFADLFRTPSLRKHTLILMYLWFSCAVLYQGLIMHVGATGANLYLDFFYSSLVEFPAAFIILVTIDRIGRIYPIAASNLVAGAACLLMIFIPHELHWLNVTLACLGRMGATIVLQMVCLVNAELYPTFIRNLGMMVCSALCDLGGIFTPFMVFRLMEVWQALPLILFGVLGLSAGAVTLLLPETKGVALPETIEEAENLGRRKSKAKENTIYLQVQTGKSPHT
Method: (§1) The interaction of phenanthriplatin with transporters for organic cations (OCT1-3, MATE1, and MATE2K) was investigated by measuring its effects on the uptake of the fluorescent organic cation 4-(4-dimethylamino)styryl-N-methylpyridinium (ASP^+). Microfluorometric measurements of ASP^+ uptake were performed with a fluorescence plate reader (Infinity 200, Tecan, Crailsheim, Germany; excitation at 465 nm, emission at 590 nm) as described previously for cultured HEK 293 cells (Wilde et al., [2009]). Before measurements, the culture medium in the wells of the 96 well microtiter plate containing HEK 293 cells was replaced by a HCO3- -free Ringer-like solution containing (in mM) NaCl 145, K2HPO4 1.6, KH2PO4 0.4, D-glucose 5, MgCl2 1, calcium gluconate 1.3, and pH adjusted to 7.4. Fluorescence was measured dynamically at 37°C in each well before and after ASP^+ addition to HCO3- -free Ringer-like solution, alone or together with increasing phenanthriplatin concentrations, and plotted versus time. ASP^+ (final concentration 1 or 10 μM for experiments with OCTs or MATEs, respectively) was added after the third sampling interval. Emission from the complete area of the well bottom was analyzed four times and averaged for each well. […] Background fluorescence was measured for each plate in wells with identical solutions containing no cells and subtracted from each well containing cells. […]

hMATE1 = molecular target: T2, hMATE1 (Homo sapiens, UniProt Q96FL8); experiment: Inhibition of ASP+ uptake in HEK 293 cells expressing hMATE1; type: cell-based; settings: HEK 293 hMATE1, 10 μM ASP+
T2 construct: expressed in transfected cells
T2 sequence (Q96FL8 1-570): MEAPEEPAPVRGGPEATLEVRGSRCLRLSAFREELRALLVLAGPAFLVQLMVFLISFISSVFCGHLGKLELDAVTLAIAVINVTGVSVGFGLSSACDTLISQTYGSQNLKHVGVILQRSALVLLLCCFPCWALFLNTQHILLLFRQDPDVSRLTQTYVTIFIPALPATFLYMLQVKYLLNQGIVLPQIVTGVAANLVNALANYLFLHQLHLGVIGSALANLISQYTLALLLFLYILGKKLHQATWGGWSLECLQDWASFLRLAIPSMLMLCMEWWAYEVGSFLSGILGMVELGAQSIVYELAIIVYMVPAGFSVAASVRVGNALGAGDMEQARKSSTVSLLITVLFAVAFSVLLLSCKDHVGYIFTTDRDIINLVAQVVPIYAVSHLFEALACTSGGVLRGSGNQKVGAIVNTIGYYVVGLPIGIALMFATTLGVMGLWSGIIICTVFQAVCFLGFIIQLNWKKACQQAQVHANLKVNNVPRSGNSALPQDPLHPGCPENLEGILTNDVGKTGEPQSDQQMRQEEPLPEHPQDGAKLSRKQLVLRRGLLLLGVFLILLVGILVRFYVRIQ
Method: The interaction of phenanthriplatin with transporters for organic cations (OCT1-3, MATE1, and MATE2K) was investigated by measuring its effects on the uptake of the fluorescent organic cation 4-(4-dimethylamino)styryl-N-methylpyridinium (ASP^+). Microfluorometric measurements of ASP^+ uptake were performed with a fluorescence plate reader (Infinity 200, Tecan, Crailsheim, Germany; excitation at 465 nm, emission at 590 nm) as described previously for cultured HEK 293 cells (Wilde et al., [2009]). Before measurements, the culture medium in the wells of the 96 well microtiter plate containing HEK 293 cells was replaced by a HCO3- -free Ringer-like solution containing (in mM) NaCl 145, K2HPO4 1.6, KH2PO4 0.4, D-glucose 5, MgCl2 1, calcium gluconate 1.3, and pH adjusted to 7.4. Fluorescence was measured dynamically at 37°C in each well before and after ASP^+ addition to HCO3- -free Ringer-like solution, alone or together with increasing phenanthriplatin concentrations, and plotted versus time. ASP^+ (final concentration 1 or 10 μM for experiments with OCTs or MATEs, respectively) was added after the third sampling interval. Emission from the complete area of the well bottom was analyzed four times and averaged for each well. […] Background fluorescence was measured for each plate in wells with identical solutions containing no cells and subtracted from each well containing cells. Experiments were performed with cells from one passage of the same day with controls and test replicates in the same plate.
(§2) Data are presented as mean values ± SEM, with (n) referring to the number of wells. IC50 values defined as the concentration of platinum agent required to inhibit uptake of ASP^+ by 50% and EC50 values used to assess cell viability were obtained by sigmoidal concentration-response curve fitting using GraphPad Prism, Version 5.3 (GraphPad Software, San Diego, USA). […] For multiple comparisons, ANOVA with Bonferroni post-test was used. A P-value < 0.05 was considered statistically significant.

hMATE2K = molecular target: T3, hMATE2K (Homo sapiens, UniProt Q86VL8); experiment: Inhibition of ASP+ uptake in HEK 293 cells expressing hMATE2K; type: cell-based; settings: HEK 293 hMATE2K, 10 μM ASP+
T3 construct: expressed in transfected cells
Method: as §1

HEK293 hMATE2K cells = experiment: MTT cell viability, HEK293 hMATE2K cells; type: cell-based, human; settings: 100 μM phenanthriplatin
Method: A modified 3-(4,5-dimethylthiazol-2-yl)-2,5-diphenyltetrazolium bromide (MTT) assay (Mosmann, [1983]) was used to test the chemosensitivity of cells to phenanthriplatin and, in some experiments, to cisplatin by determining the glycolysis rate via the reduction of the yellow tetrazolium salt MTT to a purple formazan dye, as previously described (Wehe et al., [2014]). Briefly, after growing for 24 h in the incubator, cells expressing or not hOCT2, hMATE1, hMATE2 or Ctr1 were treated for 10 min with platinum derivatives. Control cells were incubated with drug-free complete cell culture medium. Afterwards, the medium was carefully removed and replaced by 200 μL of fresh complete cell culture medium. After incubation for another 24 h, 10 μL of MTT solution containing 5 mg/mL of the dye were added to each well, and the cells were again incubated for 3 h. The medium was then removed and 100 μL of lysis buffer containing 10% (w/v) sodium dodecyl sulfate and 40% (v/v) dimethylformamide was added to each well. The plates were shaken for 10 min to destroy the cell structure and dissolve the blue formazan dye (Furchert et al., [2007]; Wehe et al., [2014]). Finally, the absorbance was measured at 590 nm using an automated microtiter plate reader (Infinite M200; Tecan, Männedorf, Switzerland). The percentage of viable cells in the untreated controls was compared to that for the various treatments. […]

Ctr1^+/+ MEFs = experiment: MTT cell viability, Ctr1+/+ MEFs; type: cell-based, mouse
Method: (§3) A modified 3-(4,5-dimethylthiazol-2-yl)-2,5-diphenyltetrazolium bromide (MTT) assay (Mosmann, [1983]) was used to test the chemosensitivity of cells to phenanthriplatin and, in some experiments, to cisplatin by determining the glycolysis rate via the reduction of the yellow tetrazolium salt MTT to a purple formazan dye, as previously described (Wehe et al., [2014]). Briefly, after growing for 24 h in the incubator, cells expressing or not hOCT2, hMATE1, hMATE2 or Ctr1 were treated for 10 min with platinum derivatives. Control cells were incubated with drug-free complete cell culture medium. Afterwards, the medium was carefully removed and replaced by 200 μL of fresh complete cell culture medium. After incubation for another 24 h, 10 μL of MTT solution containing 5 mg/mL of the dye were added to each well, and the cells were again incubated for 3 h. The medium was then removed and 100 μL of lysis buffer containing 10% (w/v) sodium dodecyl sulfate and 40% (v/v) dimethylformamide was added to each well. The plates were shaken for 10 min to destroy the cell structure and dissolve the blue formazan dye (Furchert et al., [2007]; Wehe et al., [2014]). Finally, the absorbance was measured at 590 nm using an automated microtiter plate reader (Infinite M200; Tecan, Männedorf, Switzerland). The percentage of viable cells in the untreated controls was compared to that for the various treatments. Experiments carried out with DAOY and UW228 cells followed a similar protocol except that these cells were incubated for 24 h with phenanthriplatin.

UW228 cells = experiment: MTT cell viability, UW228 medulloblastoma cells; type: cell-based
Method: as §3, §2

T3 sequence (Q86VL8 1-566 isoform Q86VL8-3): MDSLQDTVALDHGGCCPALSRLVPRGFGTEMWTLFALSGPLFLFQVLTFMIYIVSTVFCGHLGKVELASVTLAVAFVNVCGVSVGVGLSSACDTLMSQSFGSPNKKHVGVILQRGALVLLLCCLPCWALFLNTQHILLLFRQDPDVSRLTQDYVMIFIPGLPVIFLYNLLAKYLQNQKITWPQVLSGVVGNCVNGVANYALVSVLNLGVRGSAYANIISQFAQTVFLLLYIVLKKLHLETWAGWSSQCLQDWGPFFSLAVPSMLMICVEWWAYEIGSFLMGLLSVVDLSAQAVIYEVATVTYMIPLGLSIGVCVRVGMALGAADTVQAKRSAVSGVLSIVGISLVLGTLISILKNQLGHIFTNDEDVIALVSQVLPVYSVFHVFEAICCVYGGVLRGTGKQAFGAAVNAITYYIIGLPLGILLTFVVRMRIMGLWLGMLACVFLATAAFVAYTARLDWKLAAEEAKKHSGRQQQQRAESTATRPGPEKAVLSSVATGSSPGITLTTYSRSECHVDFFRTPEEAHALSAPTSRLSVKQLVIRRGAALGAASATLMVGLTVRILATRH

Q: How did the IC50 (mOCT1) turn out when N.N.[Cl][Pt+].c1ccc2c(c1)cnc1ccccc12 [phenanthriplatin, cis-[Pt(NH3)2Cl(phenanthridine)]^+] was run?
A: 17 µM

Q: And the “logIC50 (logEC50) ± SEM for inhibition of ASP+ uptake” value (mOCT1)?
A: −4.77 ± 0.22

Q: And the IC50 (hMATE1)?
A: 101 µM

Q: What about the “logIC50 (logEC50) ± SEM for inhibition of ASP+ uptake” value (hMATE1) of the same compound?
A: −3.99 ± 0.21

Q: What about the IC50 (hMATE2K) of the same compound?
A: 57 µM

Q: And the “logIC50 (logEC50) ± SEM for inhibition of ASP+ uptake” value (hMATE2K)?
A: −4.24 ± 0.07

Q: What about the “Cell viability (MTT)” value (HEK293 hMATE2K cells) of the same compound?
A: induces significant cell toxicity

Q: What about the “Cell viability (MTT)” value (Ctr1^+/+ MEFs; 1 mM, 10 min) of the same compound?
A: toxic

Q: What about the “Cell viability (MTT)” value (Ctr1^+/+ MEFs; lower concentrations (<1 mM)) of the same compound?
A: did not change the cell viability

Q: What about the “Protection from phenanthriplatin toxicity by cimetidine (cell viability, MTT)” value (UW228 cells; UW228, 24 h, 3 μM phenanthriplatin + 10-fold higher cimetidine) of the same compound?
A: not in UW228 cells

Q: And the EC50 (UW228 cells; UW228, 24 h incubation, MTT)?
A: 2800 nM

Q: What about the “logEC50 ± SEM for viability” value (UW228 cells; UW228, 24 h incubation, MTT) of the same compound?
A: −5.55 ± 0.03
